A short description of data set [1]: Oral toxicity, lethal dose 50 (Miller and Tainter method). To be noted: in vivo, lethal dose 50 calculated by the Miller and Tainter method, read-out: Toxicité v. o. DE50. The text has this: Les composés les plus actifs de la présente invention ont été soumis à des contrôles de toxicité.
La dose létale 50 et les activités pharmacologiques sont rapportées dans le Tableau (I).
La dose létale a été recherchée par voie orale et calculée selon la méthode de Miller et Tainter (Proc. Soc. Exper. Biol. Med., 1944,57,261).

The test system of data set [2] is souris mâles de souche swiss. In words: Rotating rod test (Rota-Rod). The format is in vivo. To be noted: Mus musculus, po, male Swiss mice, 10 per dose, effective if the mouse falls off the rod in less than two minutes, read-out: Rota-Rod v. o. DE50. The text has this:
On réalise cet essai sur des souris mâles de souche swiss. On place la souris sur une tige de bois d'un diamètre de 3 crn, tournant à raison de cinq tours par minute. On choisit les souris qui peuvent rester sur la tige pendant au moins trois minutes au cours d'essais successifs et on les rassemble par groupe de dix pour l'essai de chaque dose.
Si la souris tombe de la tige en moins de deux minutes, on considère le composé essayé comme efficace.
Les résultats sont exprimés en DE50 selon: N. W. Dunham et T. S. Miva (J. Amer. Pharm. Asso., 1957, 46,208).
(In the rotarod test animals must keep their balance on a rotating rod.)

Data set [3] relates to souris mâles de souche swiss. The experiment in a line: Pentetrazol antagonism (protection against tonic convulsions). Particulars: Mus musculus, po, 60 min before 125 mg/kg s.c. pentetrazol, male Swiss mice, observed for two hours, read-out: Pentétrazol v. o. DE50. The format is in vivo. The protocol: Ce test est réalisé sur un groupe de dix souris mâles de souche Swiss. Dans un délai de quinze minutes après l'injection sous-cutanée de 125 mg/kg de pentétrazol, les souris ont des convulsions toniques dont l'issue est fatale. Pour l'essai, on administre par voie orale les composés soixante minutes avant l'injection de pentétrazol. Les animaux sont observes pendant deux heures après administration du pentétrazol.
Les résultats sont exprimés par la dose efficace DE50 selon Goodmann et Coll. (J. Pharmacol. 108, 1953).

The structures appear in SMILES notation.

With `CN(C(=O)CNC1CCCCC1)c1ccc(Br)cc1C(=O)c1ccccc1` [Br], the LD50 in data set [1] is over 1000 mg/kg. In addition, in data set [2], the ED50 came out at 22 mg/kg.
`CN(C(=O)CNC1CCCCC1)c1ccc(C(F)(F)F)cc1C(=O)c1ccccc1` [Exemple 12, N-méthyl N'-cyclohexyl (benzoyf-2' trifluorométhyl-4') glycylanilide]: the LD50 in data set [1] is over 1000 mg/kg. Also, the ED50 in data set [3] is 1 mg/kg; in data set [2], 8 mg/kg.
`CN(C(=O)CNC1CCCCC1)c1ccc(C#N)cc1C(=O)c1ccccc1` [Exemple 13, Chlorhydrate de N-méthyl N'-cyclohexyl (benzoyl-2' cyano-4') glycylanilide]: the LD50 in data set [1] is over 1000 mg/kg. The ED50 worked out at 0.9 mg/kg in data set [3] and 7 mg/kg in data set [2].

Source of the values: EP0015214B1, “Derivatives of substituted 2-benzoyl glycinanilides, their preparation and their use in anxiolytic medicaments” (PIERRE FABRE S.A., priority 1979, dated 1980).
